# Where two headings read alike, the source gives them in different places.
# How the values were obtained:
# IL-4 = assay: Cytokine assay: IL-4 release from PHA-L stimulated human PBMCs; type: cell-based; conditions: read-out: IL4 IC50
# Experimental: (§1) Cytokine inhibitory activity is determined by measuring the effect of test agent on the release of the cytokines IL-4, IL-13 and IFNγ from human peripheral blood mononuclear cells (PBMCs) stimulated with the T-cell mitogen phytohemagglutinin-L (PHA-L). At the time of assay, human PBMCs (Astarte Biologics) are removed from cryopreservation, thawed quickly at 37° C., diluted in assay medium (RPMI-Gibco 1640 medium, 10% heat inactivated fetal bovine serum (HIFBS), 2 mM glutamine and 10 mM HEPES pH 7.4) and then centrifuged at 250×g for 5 minutes. The resulting cell pellet is re-suspended in assay medium to a concentration of approximately 5×10^6 cells/mL and 50 μL of this cell suspension (approximately 250,000 cells) is added to each well of a 384-well cell culture microtiter plate (Perkin Elmer). Varying concentrations of test compound are then diluted in assay medium and added to the assay plate wells in a volume of 25 μL. After −10 minutes at room temperature (21° C.) the cells are stimulated by the addition of 25 μL of PHA-L (14 μg/mL; Millipore) and the assay plate is placed in an incubator at 37° C. in a humidified environment in 5% carbon dioxide. The final assay conditions are approximately 250,000 human PBMCs per well in assay medium containing 3.5 μg/mL PHA-L and the indicated final concentration of test compound (approximately 10 μM to […] by 4-fold dilution). The final concentration of DMSO in the assay is approximately 0.25%. After 48 hours, the assay plate is removed from the incubator and centrifuged at 250×g for 5 minutes. A portion of the resulting cell supernatant is then used to determine the amount of IL-4, IL-13 and IFNγ in each well. Cytokine measurements are made using human IL-4, IL-13 or IFNγ HTRF assay kits (CisBio) following the manufacturer's assay protocol. The concentrations and resulting effect values for tested compounds are plotted and the concentration of compound required for 50% effect (IC50) is determined with a four-parameter logistic dose response equation (E-WorkBook, ID Business Solutions Ltd.) and shown in Table 17.
# IL-13 = assay: Cytokine assay: IL-13 release from PHA-L stimulated human PBMCs; type: cell-based; conditions: read-out: IL13 IC50
# Experimental: as §1
# IFNγ = assay: Cytokine assay: IFNγ release from PHA-L stimulated human PBMCs; type: cell-based
# Experimental: as §1
# [1] = target: PDE4B (aa 152-484, Uniprot ID Q07343) (Homo sapiens (Human), UniProt Q07343); assay: PDE4 SPA assay (scintillation proximity assay); type: biochemical; conditions: read-out: PDE4B2 IC50
# Experimental: Phosphodiesterase (PDE) activity is determined by measuring the effect of a test agent on the activity of the PDE4B enzyme in a scintillation proximity assay (SPA). At the time of assay, approximately 30 μL of PDE4B (aa 152-484, Uniprot ID Q07343) in 50 mM Tris pH 7.5, 1.3 mM MgC2, 0.004% Brij 35 is added to a 384 well white clear bottom polystyrene plate (Corning) containing 1 μL of varying concentrations of test compound. After −10 minutes at room temperature (RT; 21° C.), the assay is initiated by the addition of 20 μL of a mixture of ^3H-labeled (adenosine 3′, 5′-cyclic phosphate, ammonium salt, [2,8-^3H]; Perkin Elmer) and unlabeled cAMP. The final assay conditions are approximately 81.6 pM PDE4B in 50 mM Tris pH 7.5, 1.3 mM MgCl2, 0.004% Brij 35, 1 μM ^3H-labeled/unlabeled cAMP (1425 dpm/pmol) and the indicated final concentration of test compound (approximately 10 μM to […] by 4-fold dilution). The final concentration of DMSO in the assay is approximately 2.0%. After 30 minutes at RT, the assay is terminated by the addition of approximately 20 μL of an aqueous solution of PDE YSI SPA beads (8 mg/mL in water; Perkin Elmer). The beads are allowed to settle for at least 2 hours and the plate is then counted on a MicroBeta2 (Perkin Elmer). The concentrations and resulting effect values for the tested compound are plotted and the concentration of compound required for 50% effect (IC50) is determined with a four-parameter logistic dose response equation (E-WorkBook, ID Business Solutions Ltd.) and shown in Table 17.
# PDE4B (aa 152-484, Uniprot ID Q07343), sequence (Q07343 324-656): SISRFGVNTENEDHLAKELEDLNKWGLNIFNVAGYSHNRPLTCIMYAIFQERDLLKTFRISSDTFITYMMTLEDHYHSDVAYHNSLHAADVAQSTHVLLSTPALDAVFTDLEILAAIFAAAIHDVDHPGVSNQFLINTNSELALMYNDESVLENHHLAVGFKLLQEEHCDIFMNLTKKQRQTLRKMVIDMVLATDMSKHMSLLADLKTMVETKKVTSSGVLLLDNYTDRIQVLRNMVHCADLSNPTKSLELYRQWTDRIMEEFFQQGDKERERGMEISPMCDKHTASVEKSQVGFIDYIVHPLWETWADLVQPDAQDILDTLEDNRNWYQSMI
SMILES,"IC50 (IL-4; Homo sapiens, PBMC) [nM]",IC50 (IL-13) [nM],IC50 (IFNγ) [nM],IC50 [1] [nM],IC50 (IL-4) [nM],"IC50 (IL-13; Homo sapiens, PBMC) [nM]","IC50 (IFNγ; Homo sapiens, PBMC) [nM]"
"COc1ccc(-c2cccc(C3COB(O)C3)n2)cc1OC1CCCC1 (single isomer, unassigned) [Example 66, 4-(6-(3-(cyclopentyloxy)-4-methoxyphenyl)pyridin-2-yl)-1,2-oxaborolan-2-ol]",86.5,327,0.71,2.15,–,–,–
"COc1ccc(-c2cccc(C3COB(O)C3)n2)cc1OC1CCCC1 (single isomer, unassigned) [Example 67, 4-(6-(3-(cyclopentyloxy)-4-methoxyphenyl)pyridin-2-yl)-1,2-oxaborolan-2-ol]",–,759,12.6,4.02,99.9,–,–
"CCOc1c(OC)ccc(-c2cncc(C3COB(O)C3)c2)c1F (single isomer, unassigned) [Example 74, 4-(5-(3-ethoxy-2-fluoro-4-methoxyphenyl)pyridin-3-yl)-1,2-oxaborolan-2-ol]",10.9,–,–,3.04,–,768,2.71
"CCCOc1cc(-c2cncc(C3COB(O)C3)c2C)ccc1OC (single isomer, unassigned) [Example 85, 4-(5-(4-methoxy-3-propoxyphenyl)-4-methylpyridin-3-yl)-1,2-oxaborolan-2-ol]",0.9,–,–,0.29,–,541,0.56
"CCCOc1c(OC)ccc(-c2cccc(C3COB(O)C3)n2)c1C#N (single isomer, unassigned) [Example 87, 6-(6-(2-hydroxy-1,2-oxaborolan-4-yl)pyridin-2-yl)-3-methoxy-2-propoxybenzonitrile]",19.1,–,–,5.03,–,444,3.02
"CCCOc1cc(-c2cccc(C3COB(O)C3)c2)ccc1OC (single isomer, unassigned) [Example 89, 4-(4′-methoxy-3′-propoxy-[1,1′-biphenyl]-3-yl)-1,2-oxaborolan-2-ol]",–,449,3.5,1.21,26.4,–,–
"CCCOc1cc(-c2cccc(C3COB(O)C3)c2)ccc1OC (single isomer, unassigned) [Example 90, 4-(4′-methoxy-3′-propoxy-[1,1′-biphenyl]-3-yl)-1,2-oxaborolan-2-ol]",–,2790,13.7,4.33,290,–,–
"CCOc1cc(-c2nc(C3COB(O)C3)cs2)c(F)cc1OC (single isomer, unassigned) [Example 92, 4-(2-(5-ethoxy-2-fluoro-4-methoxyphenyl)thiazol-4-yl)-1,2-oxaborolan-2-ol]",3.36,–,–,1.79,–,947,2.7
"CCOc1c(OC)ccc(-c2cncc(C3COB(O)C3)c2)c1C(F)(F)F (single isomer, unassigned) [Example 95, 4-(5-(3-ethoxy-4-methoxy-2-(trifluoromethyl)phenyl)pyridin-3-yl)-1,2-oxaborolan-2-ol]",7.36,–,–,4.87,–,461,2.87
"CCOc1ccc(-c2cncc(C3COB(O)C3)c2)cc1OCC (single isomer, unassigned) [Example 98, 4-(5-(3,4-diethoxyphenyl)pyridin-3-yl)-1,2-oxaborolan-2-ol]",–,2800,2.67,1.13,219,–,–
"CCCOc1cc(-c2cncc(C3COB(O)C3)c2)ccc1OCC (single isomer, unassigned) [Example 105, 4-(5-(4-ethoxy-3-propoxyphenyl)pyridin-3-yl)-1,2-oxaborolan-2-ol]",14.2,490,–,3.2,–,–,5.46
"CCCOc1cc(-c2cncc(C3COB(O)C3)c2)ccc1OCC (single isomer, unassigned) [Example 106, 4-(5-(4-ethoxy-3-propoxyphenyl)pyridin-3-yl)-1,2-oxaborolan-2-ol]",–,2080,3.42,1.83,16.1,–,–
"CCCOc1cc(-c2cncc(C3COB(O)C3)c2)c(F)cc1OC (single isomer, unassigned) [Example 111, 4-(5-(2-fluoro-4-methoxy-5-propoxyphenyl)pyridin-3-yl)-1,2-oxaborolan-2-ol]",3.01,–,–,0.97,–,496,2.95
"CCOc1cc(-c2cncc(C3COB(O)C3)c2)cc(C#N)c1OC (single isomer, unassigned) [Example 119, 3-ethoxy-5-(5-(2-hydroxy-1,2-oxaborolan-4-yl)pyridin-3-yl)-2-methoxybenzonitrile]",5.74,–,–,0.72,–,1190,7.34
"COc1cnc(-c2cccc(C3COB(O)C3)c2)nc1OC (single isomer, unassigned) [Example 123, 4-(3-(4,5-dimethoxypyrimidin-2-yl)phenyl)-1,2-oxaborolan-2-ol]",34.1,–,–,3.11,–,1640,3.58
"COc1ccc(-c2cncc(C3COB(O)C3)n2)cc1OC1CCCC1 (single isomer, unassigned) [Example 126, 4-(6-(3-(cyclopentyloxy)-4-methoxyphenyl)pyrazin-2-yl)-1,2-oxaborolan-2-ol]",7.21,–,–,0.85,–,680,0.79
"CCCOc1cc(-c2cccc(C3COB(O)C3)n2)ccc1OC (single isomer, unassigned) [Example 128, 4-(6-(4-methoxy-3-propoxyphenyl)pyridin-2-yl)-1,2-oxaborolan-2-ol]",53.1,–,–,5.74,–,667,2.25
"CCOc1cc(-c2cncc(C3COB(O)C3)c2C(F)F)ccc1OC (single isomer, unassigned) [Example 139, 4-(4-(difluoromethyl)-5-(3-ethoxy-4-methoxyphenyl)pyridin-3-yl)-1,2-oxaborolan-2-ol]",–,788,0.4,0.25,0.78,–,–
"CCOc1cc(-c2cncc(C3COB(O)C3)c2C(F)F)ccc1OC (single isomer, unassigned) [Example 140, 4-(4-(difluoromethyl)-5-(3-ethoxy-4-methoxyphenyl)pyridin-3-yl)-1,2-oxaborolan-2-ol]",–,3450,3.2,2.7,3.47,–,–
"CCOc1cc(-c2cncc(C3COB(O)C3)c2C)c(F)cc1OC (single isomer, unassigned) [Example 142, 4-(5-(5-ethoxy-2-fluoro-4-methoxyphenyl)-4-methylpyridin-3-yl)-1,2-oxaborolan-2-ol]",4.5,–,–,2.53,–,1040,2.04
"CCOc1cc(-c2cncc(C3COB(O)C3)c2C)c(F)cc1OC (single isomer, unassigned) [Example 143, 4-(5-(5-ethoxy-2-fluoro-4-methoxyphenyl)-4-methylpyridin-3-yl)-1,2-oxaborolan-2-ol]",–,1160,3.68,2.71,4.11,–,–
"CCCOc1cccc(-c2cncc(C3COB(O)C3)c2)c1 (single isomer, unassigned) [Example 146, 4-(5-(3-propoxyphenyl)pyridin-3-yl)-1,2-oxaborolan-2-ol]",24.4,–,–,1.21,–,757,23.8

# Reference: US11559538B2, “Substituted 1,2-oxaborolan-2-ols as PDE4 inhibitors” (Pfizer Inc., priority 2018, dated 2023)
